Entries after “also recorded” stand apart in the source; their conditions may differ.
Legend:
Tolerability in mice = format: in vivo; conditions: incl. daily 20 mg/kg for greater than 60 days and once-weekly 70 mg/kg
Text: Studies that are currently underway in pediatric patients and those being planned must consider the permanent changes on cartilage and bone formation observed in young mice as a result of treatment with the HhAntag Smoothened inhibitor (Kimura et al., (2008) Cancer Cell 13: 249-260). The extent to which this on-target toxicity is species specific remains unknown at this time.

[1] = test system: LX22 primary small cell lung tumor; test: LX22 primary small cell lung cancer xenograft, post etoposide/carboplatin; format: in vivo, mice
Experimental: FIG. 1 is a series of line graphs showing the effect in tumor size (mm^3) as a function of days of treatment of mice having an LX22 primary small cell lung tumor with IPI-926 alone (“IPI-926”), etoposide/carboplatin followed by vehicle control (“E/P→Vehicle”), E/P followed by IPI-926 (“E/P→IPI-926”) and vehicle control. Mice were treated for 5 weeks total with IPI-926 follow-up treatment at 40 mg/kg PO QD.
Briefly, LX22 primary small cell lung model was treated with 1.5 cycles of etoposide/carboplatin (E/P). Administration of IPI-926 was initiated 24 hours after the last dose of chemotherapy. In the normal course of these studies, IPI-926 was administered […].
The effect of delaying the onset of IPI-926 administration following chemotherapy was further characterized. […] FIG. 2 is a linear graph depicting the effect in tumor size as a function of time of chemotherapy treatment and following with IPI-926 treatment on day 5 (D5) and day 15 (D15) following chemotherapy treatment. Thus, a narrow window of intervention is necessary to maximize the beneficial effects of IPI-926 in tumor inhibition following chemotherapy.

[2] = test system: primary serous ovarian cancer xenograft; test: Primary serous ovarian cancer xenograft, post carboplatin/taxol; format: in vivo, NOD/SCID mice
Experimental: The effects of IPI-926 were examined following carboplatin/taxol combination chemotherapy in a series of primary ovarian cancer xenograft models.
1) IPI-926 was given daily, oral at 40 mg/kg
2) The taxol/carboplatinum was given: • a. Intraperitoneal Carboplatinum 50 mg/kg every 7 days • b. Intraperitoneal Paclitaxel 15 mg/kg every 7 days
Days of carboplatin/taxol and IPI-926 administration are indicated by the arrows. […] The inhibitory effects of IPI-926 persisted after discontinuing administration of IPI-926. Thus, IPI-926 can be useful as maintenance therapy in ovarian cancer.
Excess ovarian tumor tissue from patients was collected. Histologically confirmed papillary serous ovarian tumors was disaggregated into purified tumor cells devoid of hematologic components. These cells were suspended in a 1:1 PBS:Matrigel®. A suspension of a specified number of cells was injected subcutaneously (SC) into 6 week old NOD/SCID mice (NOD/LtSz-Prkdcscid/J; 6-8 weeks; Jackson Labs). The mice were housed and maintained in accordance with the institutional guidelines and tumor formation in the injected animals is monitored regularly. Subcutaneous tumors were measured weekly with calipers, and the volume (in mm^3) was determined using the formula: [length (mm)×width (mm)×width (mm)]/2. Animals were euthanized when they become moribund or had evident excessive tumor burden. For continued propagation in mice, the generated tumors were excised and processed as described for the primary tumor samples, depleted of mouse H2 Kd+ cells (MACS beads) and re-injected subcutaneously into new recipient NOD/SCID mice. All tumor cells utilized for these experiments underwent at least 3 passages to ensure the presence of a tumor initiating population. Histology of each generation was evaluated to confirm the maintenance of papillary serous histology.
Following serial transplantation, a minimum of 40 tumor-bearing mice (300-600 mm^3) were treated with vehicle or paclitaxel (15 mg/kg) and carboplatinum (50 mg/kg) (T/C) IP q 7 days. […] Tumor volume and mouse weights were regularly assessed. […]

## CC1=C2C[C@H]3[C@@H](CC[C@@H]4C[C@H](NS(C)(=O)=O)CC[C@@]43C)[C@@H]2CC[C@@]2(C1)O[C@@H]1C[C@H](C)CN[C@H]1[C@H]2C [IPI-926]
Tolerability in mice
  tolerability: well tolerated
[1]; E/P then IPI-926 40 mg/kg PO QD, started 24 hours after last chemotherapy dose
  tumor re-growth following cyto-reductive chemotherapy: inhibitory effect on the re-growth of tumors
[1]; IPI-926 administration delayed by 5 or 14 days after chemotherapy
  tumor growth inhibition with delayed onset of administration: loss of the IPI-926 effect in tumor growth inhibition
[1]; tumors after chemotherapy, vs vehicle-treated
  expression of stromal marker murine Gli-1: inhibited
[2]; after 20 days of treatment, vs control treated mice
  percent tumor volume, IPI-926 alone: smaller percent tumor volume (p<0.007)
[2]; carboplatin/taxol followed by IPI-926 40 mg/kg oral, vs followed by vehicle, 40 mg/kg
  tumor volume after cessation of carboplatin/taxol chemotherapy: prolonged duration of the tumor inhibition; also recorded: smaller percent tumor volume (p<0.02)
[2]; primary xenograft model of ovarian cancer
  mGLI-1 mRNA in tumor: modulate mGLI-1

— US20120010229A1, “THERAPEUTIC REGIMENS FOR HEDGEHOG-ASSOCIATED CANCERS” (priority 2010, published 2012)
